Eight compounds from patent publication US3985747A, “Crystalline sesquihydrate of 7-[D-α-amino-α-(p-hydroxyphenyl)acetamido]-3-(1,2,3-triazol- 5-ylthiomethyl)-3-cephem-4-carboxylic acid” (priority 1974, dated 1976) can be followed below.

Data set [1] is described as follows: Loss of bioactivity of the solid on storage at elevated temperatures. The following applies: for Loss of bioactivity (potency) on storage: 43800 min. The format is physicochemical.
A further data set is described as follows: Water solubility. The format is physicochemical.
A short description of data set [2]: in vivo. Further details: species or system mice. The settings on record: mouse, im, 10 mg/kg. Here is the method: Mouse Blood Levels after IM Administration of 10 mg./kg. Dose of BL-S640
For data set [3] the following is noted: pH 7.
Data set [4] in a line: Loss of bound water on drying. It is filed as physicochemical. The following applies: very mild conditions (air drying 37° - 45° C., 24 hours). Here is the method:
Upon recovery of the crystalline hydrate from the reaction mixture and cooling to room temperature, the hydrate is ordinarily isolated in the form of the crystalline dihydrate. […] […] […] Upon vacuum drying at 56° C. for 24 hours a crystalline hemihydrate is formed having 0.5 moles of bound water per mole of cephalosporin. All of the above-mentioned novel crystalline hydrates are included within the scope of the present invention.

Another data set deals with S. aureus Smith A9537. In words: M.I.C. by Tube Dilution. The following applies: Staphylococcus aureus, overnight 37° C. It is filed as cell-based.
In a further data set the test system is K. pneumoniae A15130. In words: microbe, parasite or virus in culture. The following applies: Klebsiella pneumoniae.
The subject of a further data set is E. coli Juhl A15119. Kind of data set: microbe, parasite or virus in culture. The following applies: Escherichia coli, JUHLA15119.
For a further data set, the system named is Pr. mirabilis A9900. In words: M.I.C. by Tube Dilution. The following applies: Proteus mirabilis.
For the next data set, the system named is Ent. cloacae A9659. In words: M.I.C. by Tube Dilution. The settings on record: Enterobacter cloacae.
In a further data set the test system is Sal.enteritidis A9531. In words: M.I.C. by Tube Dilution. It is filed as cell-based. The following applies: Salmonella enterica.
The subject of another data set is K. pneumoniae A9977. In words: M.I.C. by Tube Dilution. The following applies: Klebsiella pneumoniae.
Another data set has as its system Ps. aeruginosa A9843A. In words: microbe, parasite or virus in culture. The following applies: Pseudomonas aeruginosa.
The test system of data set [5] is S. aureus(methicillin resist) A15097. Kind of data set: microbe, parasite or virus in culture. The following applies: Staphylococcus aureus.
The test system of the next data set is Pr. morganii A15153. In words: M.I.C. by Tube Dilution. The following applies: Morganella morganii.
Another data set relates to E. coli A9675. In words: M.I.C. by Tube Dilution. The format is cell-based. The following applies: Escherichia coli.
The next data set concerns Ser. marcescens A20019. Kind of data set: M.I.C. by Tube Dilution. The settings on record: Serratia marcescens.
The next data set has as its system Ent. cloacae A9656. Kind of data set: M.I.C. by Tube Dilution. The settings on record: Enterobacter cloacae.
A further data set has as its system S. aureus BX1633-2 A9606. Kind of data set: M.I.C. by Tube Dilution. The format is cell-based. The settings on record: Staphylococcus aureus, overnight 37° C.
A further data set concerns Ent. cloacae A9657. Kind of data set: M.I.C. by Tube Dilution. The settings on record: Enterobacter cloacae.
The next data set relates to D. pneumoniae A9585. Kind of data set: M.I.C. by Tube Dilution. The format is cell-based. The settings on record: Streptococcus pneumoniae, at 10^-3 dil'n, + 5% serum, 50% Nutrient Broth - 45% Antibiotic Assay Broth, overnight 37° C.
The next data set concerns Str. Pyogenes A9604. In words: M.I.C. by Tube Dilution. It is filed as cell-based. The following applies: Streptococcus pyogenes; at 10^-3 dil'n, + 5% serum; 50% Nutrient Broth - 45% Antibiotic Assay Broth; overnight 37° C.
The nature of data set [6]: in vivo. The following applies: mouse, blood, po, 100 mg/kg.
A short description of another data set: physchem. It is filed as physicochemical. The settings on record: for Bioassay: solution pH 7.1, room temperature. An excerpt:
The above components are shaken to form an amber solution having a pH = 7.1. The solution was allowed to stand at room temperature and periodically assayed to determine stability.

The subject of a further data set is bacteria. Kind of data set: Antibacterial testing in vitro and in vivo. The following applies: versus that reported in U.S. application Ser. No. 318,340.
The conditions of data set [7]: in vivo, po.
Where [8] appears, read: SMITHA9537, at 10^-4 dilution, + 50% serum.
The mark [9] stands for this setting: at 10^-4 dilution, overnight 37° C., read-out: M.I.C.

Values after ≈ are worked out from the molar mass of the structure shown. Counter-ions that a name gives are not always drawn. Like-named read-outs stand apart in the source and are kept apart here.

For the compound `N[C@@H](C(=O)NC1C(=O)N2C(C(=O)O)=C(CSc3cnn[nH]3)CSC12)c1ccc(O)cc1` (stereo partly drawn) [Crystalline Methanol Solvate, 7-[D-α-amino-α-(p-hydroxyphenyl)acetamido]-3-(1,2,3-triazol-5-ylthiomethyl)-3-cephem-4-carboxylic acid methanol solvate], the Bio-assay in the data set “Bio-assay (biopotency)” was 850 to 900 µg/mg.

With `N[C@@H](C(=O)NC1C(=O)N2C(C(=O)O)=C(CSc3cnn[nH]3)CSC12)c1ccc(O)cc1` (stereo partly drawn) [propylene glycol solvate, 7-[D-α-amino-α-(p-hydroxyphenyl)acetamido]-3-(1,2,3-triazol-5-ylthiomethyl)-3-cephem-4-carboxylic acid propylene glycol solvate], the “Loss of bioactivity (potency) on storage” value in [1] (56° C., 1 month) was below 10%. The degraded at 24 h in data set [1] (solid, 100° C., 24 hours) is below 6%. The same compound returned a degraded at 48 h in [1] (solid, 100° C., 48 hours) below 12%. This compound yielded a Bio-assay in “Bio-assay (biopotency)” of 750 to 790 µg/mg. The solubility (usually the dissolved amount per volume that the medium holds) in “Water solubility” (23° C., read-out: Water solubility) was around 10000 µg/mL.

In the data set “in vivo [2]”, `Cc1nnc(SCC2=C(C(=O)O)N3C(=O)[C@@H](NC(=O)Cn4cnnn4)[C@H]3SC2)s1` [Cefazolin, Na salt, sodium cefazolin, reference compound] yielded a concentration at 5 min of 16100 ng/mL, a concentration at 0.5 h of 11100 ng/mL, a concentration at 1 h of 5700 ng/mL and a concentration at 1.5 h of 2900 ng/mL.

As for `N[C@@H](C(=O)NC1C(=O)N2C(C(=O)O)=C(CSc3cnn[nH]3)CSC12)c1ccc(O)cc1` (some centres unmarked) [amorphous monohydrate product], in [1] (56° C., 1 month), the “Loss of bioactivity (potency) on storage” value amounted to 37%.

As to `N[C@@H](C(=O)NC1C(=O)N2C(C(=O)O)=C(CSc3cnn[nH]3)CS[C@H]12)c1ccc(O)cc1` (stereo partly drawn) [BL-S640, 7-[D-α-Amino-α-(p-hydroxyphenyl)acetamido]-3-(1,2,3-triazol-5-ylthiomethyl)-3-cephem-4-carboxylic acid], the “Degradation at alkaline pH” value in data set [3] was “degrades very rapidly by loss of the thiol moiety”.

Consider `N[C@@H](C(=O)NC1C(=O)N2C(C(=O)O)=C(CSc3cnn[nH]3)CS[C@H]12)c1ccc(O)cc1.O.O` (stereo partly drawn) [dihydrate, 7-[D-α-Amino-α-(p-hydroxyphenyl)-acetamido]-3-(1,2,3-triazol-5-ylthiomethyl)-3-cephem-4-carboxylic acid dihydrate], for which the Bio-assay in “Bio-assay (biopotency)” was in the range of 950 to 1000 µg/mg. The “Loss of bound water” value in [4] is “lose one-half molecule of bound water”.

For the compound `CC1=C(C(=O)O)N2C(=O)[C@@H](NC(=O)[C@H](N)c3ccccc3)[C@H]2SC1` [Cephalexin, cephalexin, reference compound], the MIC is 2.5 µg/mL in the data set on S. aureus Smith A9537 (setting [8]); 0.6 µg/mL (≈ 1.73 µM) against S. aureus Smith A9537 (SMITHA9537, at 10^-4 dilution); 8 µg/mL (≈ 23 µM) in the data set on K. pneumoniae A15130; 4 µg/mL (≈ 11.5 µM) in the data set with E. coli Juhl A15119; 2 µg/mL (≈ 5.76 µM) in the data set on Pr. mirabilis A9900; above 125 µg/mL with Ent. cloacae A9659. The MIC against Sal.enteritidis A9531 is 2 µg/mL (≈ 5.76 µM); against K. pneumoniae A9977, 2 µg/mL (≈ 5.76 µM); with Ps. aeruginosa A9843A, above 125 µg/mL; in data set [5], 32 µg/mL (≈ 92.1 µM); against Pr. morganii A15153, above 125 µg/mL; in the data set on E. coli A9675, 16 µg/mL (≈ 46.1 µM). Further, the MIC in the data set with Ser. marcescens A20019 was above 125 µg/mL; in the data set with Ent. cloacae A9656, above 125 µg/mL; in the data set with S. aureus BX1633-2 A9606 (BX16332A9606, at 10^-2 dil'n), 2 µg/mL (≈ 5.76 µM); against S. aureus BX1633-2 A9606 (BX16332A9606, at 10^-3 dil'n), 1 µg/mL (≈ 2.88 µM).

Turning to `N[C@@H](C(=O)N[C@@H]1C(=O)N2C(C(=O)O)=C(CSc3c[nH]nn3)CS[C@H]12)c1ccc(O)cc1` [BL-S640 Sesquihydrate, 7-[D-α-amino-α-(p-hydroxyphenyl)acetamido]-3-(1,2,3-triazol-5-ylthiomethyl)-3-cephem-4-carboxylic acid sesquihydrate], the “Biological activity when suspended in water” value is reported as “does not lose biological activity”. In the data set with S. aureus Smith A9537 (setting [8]), the MIC is 1 µg/mL. In addition, in the data set with S. aureus Smith A9537 (SMITHA9537, at 10^-4 dilution, read-out: M.I.C.), the MIC came to 0.3 µg/mL. The compound further registered an MIC in the data set on K. pneumoniae A15130 of 2 µg/mL. The compound also had an MIC against E. coli Juhl A15119 of 2 µg/mL. In the data set with Pr. mirabilis A9900, the MIC came out at 0.5 µg/mL. The compound further returned an MIC with Ent. cloacae A9659 of 32 µg/mL. In addition, the MIC in the data set with Ent. cloacae A9657 came to 1 µg/mL. In addition, in “in vivo [2]”, the concentration at 5 min turned out to be 15000 ng/mL, the concentration at 0.5 h was 13500 ng/mL, the concentration at 1 h was found to be 9400 ng/mL and the concentration at 1.5 h came out at 6800 ng/mL. In addition, the MIC in the data set on Sal.enteritidis A9531 (setting [9]) amounted to 0.6 µg/mL. Also, the MIC against K. pneumoniae A9977 stood at 1 µg/mL. Also, the degraded at 730 h in [1] (solid, 56° C., 1 month, read-out: Loss of bioactivity (potency) on storage) was below 6%. Further, the Bio-assay in “Bio-assay (biopotency)” was determined as 924 µg/mg. In the data set “Water solubility” (25° C., read-out: Solubility in water), the solubility is around 10000 µg/mL. The compound also registered an MIC against Ps. aeruginosa A9843A above 125 µg/mL. For the same compound, the MIC in data set [5] stood at 8 µg/mL. In addition, in the data set with D. pneumoniae A9585, the MIC came to 0.02 µg/mL. Further, in the data set with Str. Pyogenes A9604, the MIC turned out to be 0.02 µg/mL. Further, in “in vivo [6]”, the concentration at 0.5 h is 46000 ng/mL, the concentration at 1 h is 42500 ng/mL, the concentration at 2 h was determined as 22500 ng/mL and the concentration at 3.5 h was determined as 11900 ng/mL. Besides, in “physchem” (aqueous solution, pH 7.1), the degraded at 0.5 h stood at 0.8%, the degraded at 1 h is 5.8%, the degraded at 1.5 h was 8.3% and the degraded at 2 h was determined as 15.9%. Besides, the degraded at […] in the data set “physchem” (aqueous solution, pH 7.1) stood at 0.8%. The compound further displayed a Bioassay in the data set “physchem” (15 minutes) of 238 mg/mL. In the data set “physchem” (30 minutes), this compound returned a Bioassay of 238 mg/mL. This compound gave a Bioassay in the data set “physchem” (60 minutes) of 226 mg/mL. Besides, the Bioassay in the data set “physchem” (90 minutes) came out at 220 mg/mL. Moreover, the Bioassay in the data set “physchem” (2 hours) came to 202 mg/mL. This compound also had a Bioassay in the data set “physchem” (time 0) of 240 mg/mL. The MIC with Pr. morganii A15153 is 16 µg/mL. Further, the “Potency and spectrum of activity” value in the data set with bacteria was “substantially the same potency and spectrum of activity”. Besides, the MIC with E. coli A9675 (setting [9]) was 4 µg/mL. In addition, the Blood levels entry in [7] was “effective blood levels”. Moreover, in the data set on Ser. marcescens A20019, the MIC was determined as 125 µg/mL. The MIC against Ent. cloacae A9656 was above 125 µg/mL. For the same compound, in the data set on S. aureus BX1633-2 A9606 (BX16332A9606, at 10^-2 dil'n), the MIC came to 2 µg/mL. The MIC in the data set on S. aureus BX1633-2 A9606 (BX16332A9606, at 10^-3 dil'n, read-out: M.I.C.) came out at 0.6 µg/mL.
